Molecules are shown by their SMILES. Activity calls are given as the source filed them. The rule behind the calls is not given here.

The series concerns CCRIS mutagenicity, Ames/micronucleus/aberration tests. As to the kind of experiment: CCRIS mutagenicity studies.
Where [1] appears, read: Test System: AMES SALMONELLA TYPHIMURIUM, Strain/Indicator: TA98, Metabolic Activation: NONE, Method: PREINCUBATION
[2] abbreviates: Test System: AMES SALMONELLA TYPHIMURIUM, Strain/Indicator: TA100, Metabolic Activation: NONE, Method: PREINCUBATION
The mark [3] stands for this setting: Test System: AMES SALMONELLA TYPHIMURIUM, Strain/Indicator: TA1535, Metabolic Activation: NONE, Method: PREINCUBATION
Where [4] appears, read: Test System: AMES SALMONELLA TYPHIMURIUM, Strain/Indicator: TA1537, Metabolic Activation: NONE, Method: PREINCUBATION

Turning to `Cc1ccc2c(c1[N+](=O)[O-])C(=O)c1ccccc1C2=O`, the mutagenic call by setting is: (Test System: AMES SALMONELLA TYPHIMURIUM, Strain/Indicator: TA98, Metabolic Activation: NONE, Method: STANDARD PLATE) “active; positive”; (Test System: AMES SALMONELLA TYPHIMURIUM, Strain/Indicator: TA98, Metabolic Activation: RAT, LIVER, S-9, AROCLOR 1254, Method: STANDARD PLATE) “active; positive”; (Test System: AMES SALMONELLA TYPHIMURIUM, Strain/Indicator: TA100, Metabolic Activation: RAT, LIVER, S-9, AROCLOR 1254, Method: STANDARD PLATE) “active; positive”; (Test System: AMES SALMONELLA TYPHIMURIUM, Strain/Indicator: TA1535, Metabolic Activation: NONE, Method: STANDARD PLATE) “inactive; negative”; (Test System: AMES SALMONELLA TYPHIMURIUM, Strain/Indicator: TA1537, Metabolic Activation: RAT, LIVER, S-9, AROCLOR 1254, Method: STANDARD PLATE) “active; positive”; (Test System: AMES SALMONELLA TYPHIMURIUM, Strain/Indicator: TA1538, Metabolic Activation: NONE, Method: STANDARD PLATE) “active; positive”.
For `O=C(O)CCC(=O)OC[C@@H](NC(=O)C(Cl)Cl)[C@H](O)c1ccc([N+](=O)[O-])cc1`, the mutagenic call reads like this: (Test System: AMES SALMONELLA TYPHIMURIUM, Strain/Indicator: TA98, Metabolic Activation: HAMSTER, LIVER, S-9, AROCLOR 1254 (10%), Method: PREINCUBATION) “inactive; negative”; under setting [1], “inactive; negative”; (Test System: AMES SALMONELLA TYPHIMURIUM, Strain/Indicator: TA98, Metabolic Activation: RAT, LIVER, S-9, AROCLOR 1254 (10%), Method: PREINCUBATION) “inactive; negative”; (Test System: AMES SALMONELLA TYPHIMURIUM, Strain/Indicator: TA100, Metabolic Activation: HAMSTER, LIVER, S-9, AROCLOR 1254 (10%), Method: PREINCUBATION) “inactive; negative”; under setting [2], “inactive; negative”; (Test System: AMES SALMONELLA TYPHIMURIUM, Strain/Indicator: TA100, Metabolic Activation: RAT, LIVER, S-9, AROCLOR 1254 (10%), Method: PREINCUBATION) “inactive; negative”. Moreover, the mutagenic call is, setting by setting: (Test System: AMES SALMONELLA TYPHIMURIUM, Strain/Indicator: TA1535, Metabolic Activation: HAMSTER, LIVER, S-9, AROCLOR 1254 (10%), Method: PREINCUBATION) “inactive; negative”; under setting [3], “inactive; negative”; (Test System: AMES SALMONELLA TYPHIMURIUM, Strain/Indicator: TA1535, Metabolic Activation: RAT, LIVER, S-9, AROCLOR 1254 (10%), Method: PREINCUBATION) “inactive; negative”; (Test System: AMES SALMONELLA TYPHIMURIUM, Strain/Indicator: TA1537, Metabolic Activation: HAMSTER, LIVER, S-9, AROCLOR 1254 (10%), Method: PREINCUBATION) “inactive; negative”; under setting [4], “inactive; negative”; (Test System: AMES SALMONELLA TYPHIMURIUM, Strain/Indicator: TA1537, Metabolic Activation: RAT, LIVER, S-9, AROCLOR 1254 (10%), Method: PREINCUBATION) “inactive; negative”. The mutagenic call (Test System: MOUSE LYMPHOMA, Strain/Indicator: L5178Y (TK+/TK-), Metabolic Activation: NONE, Method: SUSPENSION/PLATE) is “active; positive”; the mutagenic call (Test System: MOUSE LYMPHOMA, Strain/Indicator: L5178Y (TK+/TK-), Metabolic Activation: RAT, LIVER, S-9, AROCLOR 1254, Method: SUSPENSION/PLATE) is “active; positive”; the mutagenic call (Test System: MOUSE LYMPHOMA, Strain/Indicator: L5178Y (TK+/TK-), Metabolic Activation: RAT, LIVER, S-9, Method: SUSPENSION/PLATE) is “active; positive”.
For the compound `OCC(CO)(CO)CO`, the mutagenic call reads like this: under setting [1], “inactive; negative”; (Test System: AMES SALMONELLA TYPHIMURIUM, Strain/Indicator: TA98, Metabolic Activation: RAT, LIVER, S-9, KC 500, Method: PREINCUBATION) “inactive; negative”; (Test System: AMES SALMONELLA TYPHIMURIUM, Strain/Indicator: TA98, Metabolic Activation: RAT, LIVER, S-9, SODIUM PHENOBARBITAL AND 5,6-BENZOFLAVONE, Method: PREINCUBATION) “inactive; negative”; under setting [2], “inactive; negative”; (Test System: AMES SALMONELLA TYPHIMURIUM, Strain/Indicator: TA100, Metabolic Activation: RAT, LIVER, S-9, KC 500, Method: PREINCUBATION) “inactive; negative”; (Test System: AMES SALMONELLA TYPHIMURIUM, Strain/Indicator: TA100, Metabolic Activation: RAT, LIVER, S-9, SODIUM PHENOBARBITAL AND 5,6-BENZOFLAVONE, Method: PREINCUBATION) “inactive; negative”. Further, the mutagenic call reads like this: (Test System: AMES SALMONELLA TYPHIMURIUM, Strain/Indicator: TA102, Metabolic Activation: NONE, Method: PREINCUBATION) “inactive; negative”; (Test System: AMES SALMONELLA TYPHIMURIUM, Strain/Indicator: TA102, Metabolic Activation: RAT, LIVER, S-9, SODIUM PHENOBARBITAL AND 5,6-BENZOFLAVONE, Method: PREINCUBATION) “inactive; negative”; (Test System: AMES SALMONELLA TYPHIMURIUM, Strain/Indicator: TA104, Metabolic Activation: NONE, Method: PREINCUBATION) “inactive; negative”; (Test System: AMES SALMONELLA TYPHIMURIUM, Strain/Indicator: TA104, Metabolic Activation: RAT, LIVER, S-9, SODIUM PHENOBARBITAL AND 5,6-BENZOFLAVONE, Method: PREINCUBATION) “inactive; negative”; under setting [3], “inactive; negative”; (Test System: AMES SALMONELLA TYPHIMURIUM, Strain/Indicator: TA1535, Metabolic Activation: RAT, LIVER, S-9, KC 500, Method: PREINCUBATION) “inactive; negative”. Further, the mutagenic call was “inactive; negative” (Test System: AMES SALMONELLA TYPHIMURIUM, Strain/Indicator: TA1535, Metabolic Activation: RAT, LIVER, S-9, SODIUM PHENOBARBITAL AND 5,6-BENZOFLAVONE, Method: PREINCUBATION); “inactive; negative” under setting [4]; “inactive; negative” (Test System: AMES SALMONELLA TYPHIMURIUM, Strain/Indicator: TA1537, Metabolic Activation: RAT, LIVER, S-9, KC 500, Method: PREINCUBATION); “inactive; negative” (Test System: AMES SALMONELLA TYPHIMURIUM, Strain/Indicator: TA1537, Metabolic Activation: RAT, LIVER, S-9, SODIUM PHENOBARBITAL AND 5,6-BENZOFLAVONE, Method: PREINCUBATION); “inactive; negative” (Test System: AMES SALMONELLA TYPHIMURIUM, Strain/Indicator: TA1538, Metabolic Activation: NONE, Method: PREINCUBATION); “inactive; negative” (Test System: AMES SALMONELLA TYPHIMURIUM, Strain/Indicator: TA1538, Metabolic Activation: RAT, LIVER, S-9, KC 500, Method: PREINCUBATION). Also, the mutagenic call is, setting by setting: (Test System: E. COLI, Strain/Indicator: WP2UVRA/PKM101, Metabolic Activation: NONE, Method: PREINCUBATION) “inactive; negative”; (Test System: E. COLI, Strain/Indicator: WP2UVRA/PKM101, Metabolic Activation: RAT, LIVER, S-9, SODIUM PHENOBARBITAL AND 5,6-BENZOFLAVONE, Method: PREINCUBATION) “inactive; negative”; (Test System: E. COLI, Strain/Indicator: WP2UVRA, Metabolic Activation: NONE, Method: PREINCUBATION) “inactive; negative”; (Test System: E. COLI, Strain/Indicator: WP2 UVRA, Metabolic Activation: RAT, LIVER, S-9, KC 500, Method: PREINCUBATION) “inactive; negative”; (Test System: E. COLI, Strain/Indicator: WP2UVRA, Metabolic Activation: RAT, LIVER, S-9, SODIUM PHENOBARBITAL AND 5,6-BENZOFLAVONE, Method: PREINCUBATION) “inactive; negative”.

These data come from PubChem BioAssay AID1259407 (Chemical Carcinogenesis Research Information System (CCRIS), 2018).
